{
  "source": "patent US9637484B2",
  "about": "“Cycloalkyl acid derivative, preparation method thereof, and pharmaceutical application thereof” (Shanghai Hengrui Pharmaceutical Co., Ltd., priority 2013, dated 2017)",
  "key": {"hURAT1": {"target": "hURAT1 (Homo sapiens (Human), UniProt Q96S37)", "sequence (Q96S37 whole entry)": "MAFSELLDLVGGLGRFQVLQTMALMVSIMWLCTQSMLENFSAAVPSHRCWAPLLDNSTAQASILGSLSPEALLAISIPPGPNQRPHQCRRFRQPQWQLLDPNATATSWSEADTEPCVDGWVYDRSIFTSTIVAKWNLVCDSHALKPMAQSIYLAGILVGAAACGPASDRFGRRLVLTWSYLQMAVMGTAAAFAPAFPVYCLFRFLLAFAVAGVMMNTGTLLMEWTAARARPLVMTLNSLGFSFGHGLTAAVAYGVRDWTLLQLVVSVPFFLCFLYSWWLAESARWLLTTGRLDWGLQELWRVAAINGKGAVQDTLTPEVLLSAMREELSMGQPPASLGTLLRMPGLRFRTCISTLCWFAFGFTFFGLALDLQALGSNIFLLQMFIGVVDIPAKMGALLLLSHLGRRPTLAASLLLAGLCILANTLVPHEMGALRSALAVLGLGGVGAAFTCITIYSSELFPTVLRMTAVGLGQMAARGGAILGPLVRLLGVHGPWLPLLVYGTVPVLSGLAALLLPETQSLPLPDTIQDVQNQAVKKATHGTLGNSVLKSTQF", "assay": "Assay for inhibiting URAT1: uptake of 14C-uric acid in HEK293/hURAT1 cells", "assay_type": "cell-based", "conditions": "14C-uric acid 11.57 μM, 12 minutes at room temperature", "method": "In vitro URAT1 assay can be used to identify compounds having potential activity for decreasing serum uric acid. In a suitable test, the vectors that encode human URAT1 (URAT1 cDNA: Guangzhou Copoeia EX-T4563-M02) were used to transfect cells (human embryonic kidney cells, HEK293: Cell Bank of the Chinese Academy of Sciences, GNHu18). The transfected cells—HEK293/hURAT1 cells—were obtained, then their uptake ability of radiolabeled uric acid was determined. The activity of the compounds as URAT1 inhibitors can be evaluated by the ability of the compounds to block the uptake of uric acid in the transfected cells.\nThe HEK293/hURAT1 cells in Eagle's minimal essential medium (EMEM) were inoculated in a 48-well plate that was coated with poly-D-lysine (Becton Dickinson, Catalog No. 356509), with an inoculation density of 10^5 cells/well, and incubated overnight. A reaction solution containing ^14C— uric acid (American Radioactive Compound, Catalog No. ARC 0513A) with a final concentration of 11.57 μM was prepared by the use or non-use of the test compounds in Hanks balanced salt solution (HBSS). The Hanks balanced salt solution (HBSS) contained 125 mM sodium gluconate, 4.8 mM potassium gluconate, 1.2 mM potassium dihydrogen phosphate, 1.2 mM magnesium sulfate, 1.3 mM calcium gluconate, 5.6 mM glucose and 25 mM HEPES (pH 7.3). After the medium was washed with the wash buffer (125 mM sodium gluconate, 10 mM HEPES, pH 7.3) for one time, the reaction solution prepared from the above step was added to each well and incubated at room temperature for 12 minutes. Then the reaction solution was removed, the cells were washed twice with the wash buffer and lysed with 0.2 M NaOH for 5 minutes. The cell lysate was transferred to a 96-well culture plate with a scintillation fluid (PerkinElmer, Catalog No. 1450-401), and counting of radioactivity was carried out on a Microbeta counter (PerkinElmer).\nThe test compounds were dissolved in DMSO, then DMSO with the same concentration was added to HEK293/hURAT1 cell wells without the test compounds. Cellular uptake of uric acid under various test conditions was expressed as average percentage inhibition rates in comparison to DMSO control. Radioactive values from the wells containing DMSO were considered as 100% uptake of the cells. IC50 values were calculated from the data of the inhibition rates at various concentrations.\nThe above assay was used to determine the biochemical activity of the compounds of the present invention for inhibiting hURAT1."}, "[1]": {"assay": "Pharmacokinetics assay in SD rats, intragastric administration, plasma by LC/MS/MS", "assay_type": "in vivo, Sprague-Dawley (SD) rats", "conditions": "3.0 mg/kg; for Vd/F / AUC / CL/F / half-life / Cmax / MRT: both sexes, Sprague-Dawley, rat, plasma, po; for Vd/F: read-out: Apparent Distribution Volume Vz/F; for AUC: read-out: Area Under Curve AUC; for CL/F: read-out: Clearance CL/F; for half-life: read-out: Half-Life T½ (converted); for Cmax: read-out: Plasma Conc. Cmax; for MRT: read-out: Mean Residence Time MRT", "method": "Sprague-Dawley (SD) rats were used as test animals. The compounds of Example 1, Example 2 and Example 3 were administered intragastrically to rats to determine the drug concentration in plasma at different time points by a LC/MS/MS method. The pharmacokinetic behavior of the compounds of the present invention was studied and evaluated in rats.\n12 Healthy adult SD rats, half male and half female, purchased from SINO-BRITSH SIPPR/BK LAB. ANIMAL LTD., CO, Certificate No.: SCXK (Shanghai) 2008-0016, were divided into three groups, with 4 rats in each group.\nThe appropriate amounts of test compounds were weighed and mixed with 0.5% CMC-Na to prepare a 0.3 mg/mL suspension by an ultrasonic method.\nAfter an overnight fast, 12 SD rats, half male and half female, were divided into 3 groups, with 4 rats in each group, and administered the compounds intragastrically at a dose of 3.0 mg/kg and an administration volume of 10 mL/kg.\nBlood samples (0.1 mL) were taken from the orbital sinus before administration, and at 0.5 h, 1 h, 2 h, 4 h, 6 h, 8 h, 11 h, 24 h and 48 h after administration, stored in heparinized tubes, and centrifuged for 10 minutes at 3,500 rpm to separate blood plasma. The plasma samples were stored at −20° C.\nThe concentration of the test compounds in rat plasma after intragastrically administering the test compounds was analyzed by a LC-MS/MS method. The linearity range of the method is 2.0-5000 ng/ml, and the lower limit of quantification is 2.00 ng/ml. Plasma samples were analyzed after protein precipitation."}},
  "data": [
    {"smiles": "O=C(O)C1(Sc2ccnc3ccc(-c4ccccc4C(F)(F)F)cc23)CCC1", "note": "[Example 22, 1-((6-(2-(trifluoromethyl)phenyl)quinolin-4-yl)thio)cyclobutanecarboxylic acid]", "values": [
      {"measurement": "IC50", "setting": "hURAT1", "value": 115, "unit": "nM"}
    ]},
    {"smiles": "COC(=O)COc1ccc2nccc(SC3(C(=O)O)CCC3)c2c1", "note": "[Example 13, 1-((6-(2-methoxy-2-oxoethoxy)quinolin-4-yl)thio)cyclobutanecarboxylic acid]", "values": [
      {"measurement": "IC50", "setting": "hURAT1", "value": 164, "unit": "nM"}
    ]},
    {"smiles": "O=C(O)C1(Sc2ccnc3ccc(-c4ccc(F)cc4)cc23)CCC1", "note": "[Example 7, 1-((6-(4-fluorophenyl)quinolin-4-yl)thio)cyclobutanecarboxylic acid]", "values": [
      {"measurement": "IC50", "setting": "hURAT1", "value": 159, "unit": "nM"}
    ]},
    {"smiles": "O=C(O)C1(Sc2ccnc3ccc(F)cc23)CCC1", "note": "[Example 12, 1-((6-fluoroquinolin-4-yl)thio)cyclobutanecarboxylic acid]", "values": [
      {"measurement": "IC50", "setting": "hURAT1", "value": 557, "unit": "nM"}
    ]},
    {"smiles": "O=C(O)C1(Sc2ccnc3ccc(-c4cccc(F)c4)cc23)CCC1", "note": "[Example 6, 1-((6-(3-fluorophenyl)quinolin-4-yl)thio)cyclobutanecarboxylic acid]", "values": [
      {"measurement": "IC50", "setting": "hURAT1", "value": 332, "unit": "nM"}
    ]},
    {"smiles": "O=C(O)C1(Sc2ccnc3ccc(C(F)(F)F)cc23)CCC1", "note": "[Example 2, 1-((6-(trifluoromethyl)quinolin-4-yl)thio)cyclobutanecarboxylic acid]", "values": [
      {"measurement": "Mean Residence Time MRT", "setting": "[1]", "value": "12.9 ± 5.8", "unit": "h"},
      {"measurement": "Vd/F", "setting": "[1]", "value": "1.21 ± 0.674", "unit": "L/kg"},
      {"measurement": "AUC", "setting": "[1]", "value": "38200 ± 25100", "unit": "ng·h/mL"},
      {"measurement": "CL/F", "setting": "[1]", "value": "1.95 ± 1.31", "unit": "mL/min/kg"},
      {"measurement": "half-life", "setting": "[1]", "value": "8.83 ± 4.04", "unit": "h"},
      {"measurement": "Cmax", "setting": "[1]", "value": "2710 ± 919", "unit": "ng/mL"},
      {"measurement": "IC50", "setting": "hURAT1", "value": 61, "unit": "nM"}
    ]},
    {"smiles": "COc1ccc2nccc(SC3(C(=O)O)CCC3)c2c1", "note": "[Example 4, 1-((6-methoxyquinolin-4-yl)thio)cyclobutanecarboxylic acid]", "values": [
      {"measurement": "IC50", "setting": "hURAT1", "value": 343, "unit": "nM"}
    ]},
    {"smiles": "O=C(O)C1(Sc2ccnc3ccc(Br)cc23)CCCC1", "note": "[Example 32, 1-((6-bromoquinolin-4-yl)thio)cyclopentanecarboxylic acid]", "values": [
      {"measurement": "IC50", "setting": "hURAT1", "value": 352, "unit": "nM"}
    ]},
    {"smiles": "O=C(O)C1(Sc2ccnc3ccc(Br)cc23)CC1", "note": "[Example 33, 1-((6-bromoquinolin-4-yl)thio)cyclopropanecarboxylic acid]", "values": [
      {"measurement": "IC50", "setting": "hURAT1", "value": 324, "unit": "nM"}
    ]},
    {"smiles": "O=C(O)C1(Sc2ccnc3ccc(-c4cccc(C(F)(F)F)c4)cc23)CCC1", "note": "[Example 8, 1-((6-(3-(trifluoromethyl)phenyl)quinolin-4-yl)thio)cyclobutanecarboxylic acid]", "values": [
      {"measurement": "IC50", "setting": "hURAT1", "value": 359, "unit": "nM"}
    ]},
    {"smiles": "O=C(O)C1(Sc2ccnc3ccc(C4CC4)cc23)CCC1", "note": "[Example 23, 1-((6-cyclopropylquinolin-4-yl)thio)cyclobutanecarboxylic acid]", "values": [
      {"measurement": "IC50", "setting": "hURAT1", "value": 658, "unit": "nM"}
    ]},
    {"smiles": "O=C(O)C1(Sc2ccnc3cc(Br)ccc23)CCC1", "note": "[Example 31, 1-((7-bromoquinolin-4-yl)thio)cyclobutanecarboxylic acid]", "values": [
      {"measurement": "IC50", "setting": "hURAT1", "value": 129, "unit": "nM"}
    ]},
    {"smiles": "N#Cc1ccc(SC2(C(=O)O)CCC2)c2ccccc12", "note": "[Example 10, 1-((4-cyanonaphthalen-1-yl)thio)cyclobutanecarboxylic acid]", "values": [
      {"measurement": "IC50", "setting": "hURAT1", "value": 926, "unit": "nM"}
    ]},
    {"smiles": "COCCOc1ccc2nccc(SC3(C(=O)O)CCC3)c2c1", "note": "[Example 5, 1-((6-(2-methoxyethoxy)quinolin-4-yl)thio)cyclobutanecarboxylic acid]", "values": [
      {"measurement": "IC50", "setting": "hURAT1", "value": 207, "unit": "nM"}
    ]},
    {"smiles": "O=C(O)C1(Sc2ccnc3ccccc23)CCC1", "note": "[Example 1, 1-(quinolin-4-ylthio)cyclobutanecarboxylic acid]", "values": [
      {"measurement": "Vd/F", "setting": "[1]", "value": "0.652 ± 0.333", "unit": "L/kg"},
      {"measurement": "AUC", "setting": "[1]", "value": "20700 ± 5270", "unit": "ng·h/mL"},
      {"measurement": "CL/F", "setting": "[1]", "value": "2.54 ± 0.68", "unit": "mL/min/kg"},
      {"measurement": "half-life", "setting": "[1]", "value": "2.84 ± 0.65", "unit": "h"},
      {"measurement": "MRT", "setting": "[1]", "value": "3.15 ± 0.82", "unit": "h"},
      {"measurement": "Cmax", "setting": "[1]", "value": "8800 ± 1760", "unit": "ng/mL"},
      {"measurement": "IC50", "setting": "hURAT1", "value": 251, "unit": "nM"}
    ]},
    {"smiles": "O=C(O)C1(Sc2ccnc3ccc(Br)cc23)CCC1", "note": "[Example 3, 1-((6-bromoquinolin-4-yl)thio)cyclobutanecarboxylic acid]", "values": [
      {"measurement": "Vd/F", "setting": "[1]", "value": "0.878 ± 0.335", "unit": "L/kg"},
      {"measurement": "AUC", "setting": "[1]", "value": "28400 ± 8540", "unit": "ng·h/mL"},
      {"measurement": "CL/F", "setting": "[1]", "value": "1.89 ± 0.59", "unit": "mL/min/kg"},
      {"measurement": "half-life", "setting": "[1]", "value": "5.35 ± 1.12", "unit": "h"},
      {"measurement": "MRT", "setting": "[1]", "value": "8.15 ± 1.3", "unit": "h"},
      {"measurement": "Cmax", "setting": "[1]", "value": "3470 ± 854", "unit": "ng/mL"},
      {"measurement": "IC50", "setting": "hURAT1", "value": 19, "unit": "nM"}
    ]},
    {"smiles": "N#Cc1ccc2nccc(SC3(C(=O)O)CCC3)c2c1", "note": "[Example 17, 1-((6-cyanoquinolin-4-yl)thio)cyclobutanecarboxylic acid]", "values": [
      {"measurement": "IC50", "setting": "hURAT1", "value": 398, "unit": "nM"}
    ]},
    {"smiles": "COCc1ccc2nccc(SC3(C(=O)O)CCC3)c2c1", "note": "[Example 9, 1-((6-(methoxymethyl)quinolin-4-yl)thio)cyclobutanecarboxylic acid]", "values": [
      {"measurement": "IC50", "setting": "hURAT1", "value": 197, "unit": "nM"}
    ]},
    {"smiles": "N#CCOc1ccc2nccc(SC3(C(=O)O)CCC3)c2c1", "note": "[Example 24, 1-((6-(cyanomethoxy)quinolin-4-yl)thio)cyclobutanecarboxylic acid]", "values": [
      {"measurement": "IC50", "setting": "hURAT1", "value": 680, "unit": "nM"}
    ]},
    {"smiles": "Cc1ccc2nccc(SC3(C(=O)O)CCC3)c2c1", "note": "[Example 30, 1-((6-methylquinolin-4-yl)thio)cyclobutanecarboxylic acid]", "values": [
      {"measurement": "IC50", "setting": "hURAT1", "value": 343, "unit": "nM"}
    ]}
  ]
}
